Experimental data as given in paper PMC2610488 (Journal of medicinal chemistry, 2008).

Columns and labels:
[1] = biological target: HisG; settings: competitive inhibitor for both substrates; cited from earlier work
[2] = biological target: M. tuberculosis HisG (ATP-PRTase) (Mycobacterium tuberculosis, UniProt P9WMN1); format: biochemical; settings: read-out: inhibition of enzyme activity
[3] = system: M. smegmatis; assay: Whole-cell assay, growth inhibition on agar plates; format: cell-based; settings: 12 μg/ml, 4 days
[4] = system: E. coli HisG; settings: E. coli enzyme; cited from earlier work
[5] = system: Arabidopsis thaliana HisG; settings: cited from earlier work

M. tuberculosis HisG (ATP-PRTase), sequence (P9WMN1 whole entry): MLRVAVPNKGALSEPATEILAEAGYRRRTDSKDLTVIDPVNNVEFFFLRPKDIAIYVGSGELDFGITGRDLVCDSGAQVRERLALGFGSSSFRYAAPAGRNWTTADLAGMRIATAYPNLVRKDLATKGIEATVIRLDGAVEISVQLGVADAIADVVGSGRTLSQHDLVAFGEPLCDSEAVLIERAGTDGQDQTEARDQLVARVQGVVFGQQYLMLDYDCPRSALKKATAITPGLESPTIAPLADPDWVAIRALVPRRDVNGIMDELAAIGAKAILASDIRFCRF

## Nc1ncnc2c1ncn2[C@@H]1O[C@H](COP(=O)(O)O)[C@@H](O)[C@H]1O [AMP, adenosine monophosphate]
[1]
  Ki: 550 µM

## O=C(CSc1nnc(-c2ccccc2)c(-c2ccccc2)n1)Cc1nccs1 [Compound 4]
[2]
  inhibition at 10 µM: > 50%

## O=C(CC(NC(=O)c1ccccc1)c1ccccc1)Nc1nc2ccc([N+](=O)[O-])cc2s1 (stereo not shown) [Compound 6]
[2]
  inhibition at 10 µM: > 50%

## COc1ccc(COC(=O)C2=C(C)NC3=C(C(=O)CC(c4cccs4)C3)C2c2cccs2)cc1 (stereo not shown) [Compound 10]
[2]
  inhibition at 10 µM: > 50%

## O=[N+]([O-])c1ccc(Nc2cc(Nc3cccc(O)c3)c3nonc3c2[N+](=O)[O-])c(O)c1 [Compound 18]
[3]
  growth inhibition: significant growth inhibition

## O=c1oc2ccccc2c(O)c1Cc1c(O)c2ccccc2oc1=O [dicoumarol]
[4]
  Ki: 60 µM

## di-(amino-naphthyl)-disulfide
[5]
  IC50: 0.05 µM
